Reference: patent publication US7829589B2, “Sulfonamide compounds and uses thereof” (Elixir Pharmaceuticals, Inc., priority 2005, dated 2010)
pKi: −log10 of the molar value.

Target: GHS-R (Homo sapiens, UniProt Q92847)
Test: GHS-R antagonist activity (Ki) in a cell based assay
Experimental: Cell-Based Activity Assays. For example, the ability of the compound to modulate accumulation of a second messenger signaling component downstream of GHS-R can be evaluated. For example, inositol phosphates (IP), as a result of Gq signaling in a mammalian cell, e.g., a Cos-7 cells. Other tissue culture cells, Xenopus oocytes, and primary cells can also be used.
Phosphatidylinositol turnover assay. One day after transfection COS-7 cells are incubated for 24 hours with 5 μCi of [^3H]-myo-inositol in 1 ml medium supplemented with 10% fetal calf serum, 2 mM glutamine and 0.01 mg/ml gentamicin per well. Cells are then washed twice in buffer, 20 mM HEPES, pH 7.4, supplemented with 140 mM NaCl, 5 mM KCl, 1 mM MgSO4, 1 mM CaCl2, 10 mM glucose, 0.05% (w/v) bovine serum; and incubated in 0.5 ml buffer supplemented with 10 mM LiCl at 37° C. for 30 min. For some assays, it is also useful to incubate the cells with adenosine deaminase ADA (200 U/mg, Boehringer Mannheim, Germany) for 30 min in a concentration of 1 U/ml.
After incubation with the compound of interest for 45 min at 37° C., cells are extracted with 10% ice-cold perchloric acid and placed on ice for 30 min. The resulting supernatants are neutralized with KOH in HEPES buffer, and [^3H]-inositol phosphate is purified on Bio-Rad AG 1-X8 anion exchange resin as described. Assays can be run in duplicate, triplicate, etc. […]

Chain of GHS-R (Q92847 whole entry, species assumed): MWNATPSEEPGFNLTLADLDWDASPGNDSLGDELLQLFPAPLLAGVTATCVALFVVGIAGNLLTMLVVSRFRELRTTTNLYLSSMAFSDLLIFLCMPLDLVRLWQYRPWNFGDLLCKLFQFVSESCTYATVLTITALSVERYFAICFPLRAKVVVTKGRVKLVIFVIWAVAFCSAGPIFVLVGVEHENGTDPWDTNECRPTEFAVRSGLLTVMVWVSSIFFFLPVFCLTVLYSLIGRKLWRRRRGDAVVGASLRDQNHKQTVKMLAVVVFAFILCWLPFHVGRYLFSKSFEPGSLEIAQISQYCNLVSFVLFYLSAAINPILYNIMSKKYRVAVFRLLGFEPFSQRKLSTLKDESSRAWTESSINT

For `CCN(CC)CCCS(=O)(=O)N[C@H](CCc1ccccc1)c1nc(-c2cccnc2)no1` [Compound 41, 3-Diethylamino-propane-1-sulfonic acid [(R)-3-phenyl-1-(3-pyridin-3-yl-[1,2,4]oxadiazol-5-yl)-propyl]-amide], the pKi was 6.30 to 7.00.
`CCN(CC)CCS(=O)(=O)N[C@H](CCc1ccccc1)c1nc(Cc2ccc3c(c2)OCO3)no1` [Compound 81, 2-Diethylamino-ethanesulfonic acid [(R)-1-(3-benzo[1,3]dioxol-5-ylmethyl-[1,2,4]oxadiazol-5-yl)-3-phenyl-propyl]-amide] was tested, and the pKi was 6.30 to 7.00.
`CCN(CC)CCCS(=O)(=O)N[C@H](CCc1ccccc1)c1nc(-c2c[nH]c3ccccc23)n[nH]1` [Compound 38, 3-Diethylamino-propane-1-sulfonic acid {(R)-1-[5-(1H-indol-3-yl)-2H-[1,2,4]triazol-3-yl]-3-phenyl-propyl}-amide] was tested, and the pKi was > 7.00.
In the case of `CCN(CC)CCCS(=O)(=O)N[C@H](CCc1ccccc1)c1nc(-c2ccc(Br)cc2)no1` [Compound 59, 3-Diethylamino-propane-1-sulfonic acid {(R)-1-[3-(4-bromo-phenyl)-[1,2,4]oxadiazol-5-yl]-3-phenyl-propyl}-amide], the pKi was > 7.00.
For `CCN(CC)CCS(=O)(=O)N[C@H](CCc1ccccc1)c1nc(-c2ccc(F)cc2)no1` [Compound 89, 2-Diethylamino-ethanesulfonic acid {(R)-1-[3-(4-fluoro-phenyl)-[1,2,4]oxadiazol-5-yl]-3-phenyl-propyl}-amide], the pKi was > 7.00.
In the case of `CCN(CC)CCCS(=O)(=O)N[C@H](CCc1ccccc1)c1nc(-c2cccnc2Cl)no1` [Compound 31, 3-Diethylamino-propane-1-sulfonic acid {(R)-1-[3-(2-chloro-pyridin-3-yl)-[1,2,4]oxadiazol-5-yl]-3-phenyl-propyl}-amide], the pKi was > 7.00.
For `CCN(CC)CCCS(=O)(=O)N[C@H](CCc1ccccc1)c1nc(CCc2ccc(Br)cc2)no1` [Compound 113, 3-Diethylamino-propane-1-sulfonic acid ((R)-1-{3-[2-(4-bromo-phenyl)-ethyl]-[1,2,4]oxadiazol-5-yl}-3-phenyl-propyl)-amide], the pKi was > 7.00.
With `CCN(CC)CCCS(=O)(=O)N[C@H](CCc1ccccc1)c1nc(Cc2cc(F)cc(F)c2)n[nH]1` [Compound 132, 3-Diethylamino-propane-1-sulfonic acid {(R)-1-[5-(3,5-difluoro-benzyl)-2H-[1,2,4]triazol-3-yl]-3-phenyl-propyl}-amide] the pKi was > 7.00.
In the case of `CCN(CC)CCS(=O)(=O)N[C@H](CCc1ccccc1)c1nc(-c2ccccn2)no1` [Compound 27, 2-Diethylamino-ethanesulfonic acid [(R)-3-phenyl-1-(3-pyridin-2-yl-[1,2,4]oxadiazol-5-yl)-propyl]-amide], the pKi was 6.30 to 7.00.
Molecule `CCN(CC)CCCS(=O)(=O)NCc1nc(Cc2ccc(Cl)cc2)n[nH]1` [Compound 157, 3-Diethylamino-propane-1-sulfonic acid [5-(4-chloro-benzyl)-2H-[1,2,4]triazol-3-ylmethyl]-amide] has a pKi of 6.30 to 7.00.
`CCN(CC)CCCS(=O)(=O)N[C@H](CCc1ccccc1)c1nc(Cc2cccc(OC)c2)no1` [Compound 109, 3-Diethylamino-propane-1-sulfonic acid {(R)-1-[3-(3-methoxy-benzyl)-[1,2,4]oxadiazol-5-yl]-3-phenyl-propyl}-amide] was tested, and the pKi was > 7.00.
In the case of `CCN(CC)CCCS(=O)(=O)N[C@H](CCc1ccccc1)c1nc(-c2ccc(O)cc2)n[nH]1` [Compound 120, 3-Diethylamino-propane-1-sulfonic acid {(R)-1-[5-(4-hydroxy-phenyl)-2H-[1,2,4]triazol-3-yl]-3-phenyl-propyl}-amide], the pKi was > 7.00.
`CCN(CC)CCS(=O)(=O)N[C@H](CCc1ccccc1)c1nc(Cc2ccc(Br)cc2)no1` [Compound 84, 2-Diethylamino-ethanesulfonic acid {(R)-1-[3-(4-bromo-benzyl)-[1,2,4]oxadiazol-5-yl]-3-phenyl-propyl}-amide] gave a pKi of 6.30 to 7.00.
For `CCN(CC)CCCS(=O)(=O)N[C@H](CC(N)=O)c1nc(Cc2ccc(Br)cc2)no1` [Compound 102, (R)-3-[3-(4-Bromo-benzyl)-[1,2,4]oxadiazol-5-yl]-3-(3-diethylamino-propane-1-sulfonylamino)-propionamide], the pKi was 6.30 to 7.00.
In the case of `CCN(CC)CCCS(=O)(=O)N[C@H](CCc1ccccc1)c1nc(-c2c(Cl)cccc2Cl)no1` [Compound 12, 3-Diethylamino-propane-1-sulfonic acid {(R)-1-[3-(2,6-dichloro-phenyl)-[1,2,4]oxadiazol-5-yl]-3-phenyl-propyl}-amide], the pKi was > 7.00.
`CCN(CC)CCCS(=O)(=O)N[C@H](CCc1ccccc1)c1nc(-c2ccccc2)no1` [Compound 6, 3-Diethylamino-propane-1-sulfonic acid [(R)-3-phenyl-1-(3-phenyl-[1,2,4]oxadiazol-5-yl)-propyl]-amide] was tested, and the pKi was > 7.00.
In the case of `CCN(CC)CCCS(=O)(=O)N[C@H](CCc1ccccc1)c1nc(-c2c(C)cccc2Cl)no1` [Compound 10, 3-Diethylamino-propane-1-sulfonic acid {(R)-1-[3-(2-chloro-6-methyl-phenyl)-[1,2,4]oxadiazol-5-yl]-3-phenyl-propyl}-amide], the pKi was 6.30 to 7.00.
`CCN(CC)CCCS(=O)(=O)N[C@H](CCc1ccccc1)c1nc(-c2ccc(C)cc2)no1` [Compound 71, 3-Diethylamino-propane-1-sulfonic acid [(R)-3-phenyl-1-(3-p-tolyl-[1,2,4]oxadiazol-5-yl)-propyl]-amide] was tested, and the pKi was > 7.00.
In the case of `CCN(CC)CCCS(=O)(=O)N[C@H](CCc1ccccc1)c1nc(Cc2ccccc2OC)no1` [Compound 100, 3-Diethylamino-propane-1-sulfonic acid {(R)-1-[3-(2-methoxy-benzyl)-[1,2,4]oxadiazol-5-yl]-3-phenyl-propyl}-amide], the pKi was > 7.00.
Molecule `CCN(CC)CCCS(=O)(=O)N[C@H](CCC(N)=O)c1nc(Cc2ccc(Br)cc2)no1` [Compound 98, (R)-4-[3-(4-Bromo-benzyl)-[1,2,4]oxadiazol-5-yl]-4-(3-diethylamino-propane-1-sulfonylamino)-butyramide] has a pKi of 6.30 to 7.00.
In the case of `CCN(CC)CCCS(=O)(=O)N[C@H](CCc1ccccc1)c1nc(-c2cccc(Cl)c2Cl)n[nH]1` [Compound 3, 3-Diethylamino-propane-1-sulfonic acid {(R)-1-[5-(2,3-dichloro-phenyl)-2H-[1,2,4]triazol-3-yl]-3-phenyl-propyl}-amide], the pKi was > 7.00.
Work on `CCN(CC)CCS(=O)(=O)N[C@H](CCc1ccccc1)c1nc(-c2ncccc2C)no1` [Compound 14, 2-Diethylamino-ethanesulfonic acid {(R)-1-[3-(3-methyl-pyridin-2-yl)-[1,2,4]oxadiazol-5-yl]-3-phenyl-propyl}-amide] yielded a pKi of 6.30 to 7.00.
For `CCN(CC)CCCS(=O)(=O)N[C@H](CCc1ccccc1)c1nc(-c2ccccc2C)n[nH]1` [Compound 104, 3-Diethylamino-propane-1-sulfonic acid [(R)-3-phenyl-1-(5-o-tolyl-2H-[1,2,4]triazol-3-yl)-propyl]-amide], the pKi was > 7.00.
`CCN(CC)CCCS(=O)(=O)N[C@H](CCc1ccccc1)c1nc(-c2cccc(SC)c2)n[nH]1` [Compound 123, 3-Diethylamino-propane-1-sulfonic acid {(R)-1-[5-(3-methylsulfanyl-phenyl)-2H-[1,2,4]triazol-3-yl]-3-phenyl-propyl}-amide] was tested, and the pKi was > 7.00.
With `CCN(CC)CCCS(=O)(=O)N[C@H](CCc1ccccc1)c1nc(-c2c(C)cccc2C)no1` [Compound 52, 3-Diethylamino-propane-1-sulfonic acid {(R)-1-[3-(2,6-dimethyl-phenyl)-[1,2,4]oxadiazol-5-yl]-3-phenyl-propyl}-amide] the pKi was 6.30 to 7.00.
`CCN(CC)CCCS(=O)(=O)N[C@H](CCc1ccccc1)c1nc(-c2cccc3[nH]ccc23)n[nH]1` [Compound 118, 3-Diethylamino-propane-1-sulfonic acid {(R)-1-[5-(1H-indol-4-yl)-2H-[1,2,4]triazol-3-yl]-3-phenyl-propyl}-amide] was tested, and the pKi was > 7.00.
For `CCN(CC)CCCS(=O)(=O)N[C@H](CCc1ccccc1)c1nc(-c2cncn2C)n[nH]1` [Compound 135], the pKi was > 7.00.
`CCN(CC)CCCS(=O)(=O)N[C@H](COCc1ccccc1)c1nc(-c2cccnc2)no1` [Compound 45, 3-Diethylamino-propane-1-sulfonic acid [(R)-2-benzyloxy-1-(3-pyridin-3-yl-[1,2,4]oxadiazol-5-yl)-ethyl]-amide] was tested, and the pKi was ≤ 6.00.
`CCN(CC)CCCS(=O)(=O)N1CC[C@H]1c1nc(Cc2ccc(Br)cc2)no1` [Compound 149, (S)-(3-{2-[3-(4-Bromo-benzyl)-[1,2,4]oxadiazol-5-yl]-azetidine-1-sulfonyl}-propyl)-diethyl-amine] was tested, and the pKi was > 7.00.
`CCN(CC)CCS(=O)(=O)N[C@H](CCc1ccccc1)c1nc(-c2cccnc2)no1` [Compound 43, 2-Diethylamino-ethanesulfonic acid [(R)-3-phenyl-1-(3-pyridin-3-yl-[1,2,4]oxadiazol-5-yl)-propyl]-amide] was tested, and the pKi was 6.30 to 7.00.
With `CCN(CC)CCS(=O)(=O)N[C@H](CCc1ccccc1)c1nc(-c2cccc(Br)c2)no1` [Compound 76, 2-Diethylamino-ethanesulfonic acid {(R)-1-[3-(3-bromo-phenyl)-[1,2,4]oxadiazol-5-yl]-3-phenyl-propyl}-amide] the pKi was ≤ 6.00.
